Data on 13 molecules can be found in patent publication US12467928B2, “N-terminal modifier agents and binders for treating and analyzing peptides” (Encodia, Inc., priority 2023, dated 2025).

The target of one experiment is wild-type hCAII protein (Homo sapiens, UniProt P00918). As to the kind of experiment: colorimetric IC50 assay of NTMs and NTM-AAEIR peptides. It counts as biochemical. The settings on record: for Fold Enhancement (NTM IC50) / Fold Enhancement (NTM-AAEIR IC50): relative to NTM M64; for Fold Enhancement (NTM-AAEIR IC50): NTM on AAEIR. As to the method:
The colorimetric assay used 300 nM of wild-type carbonic anhydrase incubated in 45 μL of 50 mM MOPS (pH 7.5), 33 mM Na2SO4, and 1 mM EDTA aliquoted into a 96-well, clear, flat-bottom plate. To each column of the plate, a 1/10 dilution series from 1 mM to 0.1 nM of each NTM was added and incubated at 25° C. for 10 minutes to reach binding equilibrium. […] The initial rate of hydrolysis was observed over the first 60 seconds. The slopes versus the concentration of NTM were put into a non-linear regression equation to determine the IC50 of the NTM to the carbonic anhydrase.

For experiment [1], the target named is human carbonic anhydrase II (hCAII) (Homo sapiens, UniProt P00918). As to the kind of experiment: hCAII functional assay (pNP-OAc hydrolysis) with SABA-modified peptides. It is filed as biochemical. As to the method:
A functional assay for hCAII enzyme was set up. Carbonic anhydrase catalyzes the hydrolysis of 4-nitrophenyl acetate (4-NPA) to nitrophenol, which can be monitored by absorbance at 400 nm. The enzymatic carbonic anhydrase assay generally includes 0.2-1.0 μM enzyme and 10-500 μM 4-NPA in 20-200 μL in assay buffer. […] Metal chelating agents (EDTA or EGTA), salt (NaCl, sulfate), detergent (Tween or Triton), and organic additives (acetonitrile, DMSO) may be employed to facilitate enzyme stability and reagent solubility. For the assay, 1 μM human carbonic anhydrase II, 50 mM MOPS (pH 7.6), 33 mM disodium sulfate, and 1 mM EDTA. To generate NTM-modified peptides, azide-derivatized peptides (via azide-PEG-amine and carbodiimide coupling to C-terminus of peptide) were conjugated to DBCO-coupled beads. […] To evaluate P1 dependence of the binding reaction, multiple P1 residues has been tested.

The target in experiment [2] is biotinylated peptides M64-P1-P2-ΔK-(PEG9)(PEG9)-K(Biotin). As to the kind of experiment: bio-layer interferometry (BLI) of engineered binders. It is filed as binding. The settings on record: M64 peptide, 22° C. As to the method: Bio-layer interferometry (BLI) is an optical analytical and label-free method to directly measure kinetics between two biomolecules. In this technology, one biomolecule is immobilized on a surface in the form of a small tip, this tip is then dipped in a microplate containing the second biomolecule of interest. White light is directed down the tip to the tip surface where the binding is measured as a shift in wavelength that is caused as a result of the interference between incident and reflected light. More specifically, there are two surfaces at the tip, a reference layer and the experiment layer, the latter is where the biomolecules immobilize and bind. As the distance between these two layers increases due to biomolecules binding and immobilizing, the shift between incident and reflected wavelengths increases as caused by the light waves interfering at the two layers. Therefore, the size and the number of biomolecules that bind onto the surface is proportional to the shift measured. This shift is plotted against time to give a sensogram from which kon, koff and ultimately KD can be calculated.
All binding experiments were carried out on an 8-channel Gator Prime (Gator Bio) instrument. To measure the affinity of each binder-peptide pair, biotinylated peptides were immobilized on Streptavidin coated biosensor tips (Gator Bio), which were dipped in six binder concentrations and two controls. All binding assays were performed at 22° C. in 96 well polypropylene plates (Gator Bio) and carried out in triplicates with a well volume of 200 uL. Streptavidin coated biosensors were hydrated in the baseline buffer for 10 mins before each assay. All binding experiments used biotinylated peptides with the following sequence construct, M64-P1-P2-ΔK-(PEG9)(PEG9)-K(Biotin) and all peptides were diluted in the baseline buffer. Binders having sequences set forth in SEQ ID NO: 75-SEQ ID NO: 82 were tested. The binders originated from three different metalloenzyme scaffolds and were engineered according to the methods disclosed in Examples 4-6. […] All binders were serially diluted using the baseline buffer either by 2- or 3-fold. Baseline buffer consisted of 50 mM MOPS pH 7.5, 33 mM NaSO4, 1 mM EDTA and 0.1% Tween-20. The following protocol was used for each binding assay under shaker speed of 1000 rpm, which generated the best quality binding with minimal sensor to sensor variation and baseline drift (Table 14).
Between each binding assay, if biosensors were used more than once, the following protocol was used to regenerate the biosensor for subsequent binding assays (Table 15). Regeneration buffer consisted of […] and 10 mM Glycine pH 2.0.
Analysis of binding curves. […] Binding curves were aligned to the association step and subtracted using the reference curve. Each set of processed curves were then fit locally and inspected. The residual plot, R2 and Chi2 were examined to be <0.1 nm, […] and <3 nm respectively. […] Next, the qualifying curves were filled globally and the kinetic parameters kobs, kon, koff and KD were calculated along with their errors. The errors were inspected to be less than […] of its calculated value. Finally, the theoretical shift at equilibrium from the qualifying curves were filled on a steady state plot, and the KD and Rmax (theoretical maximum binding capacity in nm) were calculated from that curve. The kinetic parameters of exemplary generated binders (having sequences set forth in SEQ ID NO: 75-SEQ ID NO: 82) with their respective targets (indicated as P1 residue of immobilized peptides) are shown in Table 16.
In general terms: In BLI a coated tip is dipped into the sample, and binding shifts an interference pattern.

The mark [3] stands for this setting: 1 μM hCAII, 500 μM pNP-OAc, 10 minutes at 37° C., pNP release over 180 s.

Peptide text beside a SMILES is read from it. * marks the point of attachment. Benzoyl(4-SO2NH2) = NS(=O)(=O)c1ccc(C(=O)*)cc1

`COc1cc(S(N)(=O)=O)ccc1C(=O)O` [M73, 2-Methoxy-4-sulfarnoylbenzoic acid]: the “Fold Enhancement (NTM IC50)” value on wild-type hCAII protein stood at 0.0.

With `NS(=O)(=O)c1ccc(C(=O)O)cn1` [M65, 6-Sulfamoylpyridine-3-carboxylic acid], at wild-type hCAII protein, the “Fold Enhancement (NTM IC50)” value is 2.2 and the “Fold Enhancement (NTM-AAEIR IC50)” value worked out at 0.3.

For the molecule `Nc1cc(S(N)(=O)=O)ccc1C(=O)O` [2-NH2, 2-Amino-4-sulfamoylbenzoic acid], on wild-type hCAII protein, the “Fold Enhancement (NTM IC50)” value is 0.3.

As to `C[C@H](NC(=O)[C@H](C)NC(=O)[C@H](Cc1ccccc1)NC(=O)c1ccc(S(N)(=O)=O)cc1)C(=O)N[C@@H](C)C(=O)N[C@@H](CCC(=O)O)C(N)=O` [(SAB)FAAAE] ({Benzoyl(4-SO2NH2)}-FAAAE-NH2), the IC50 in experiment [1] (setting [3]) and in experiment [1] (SABA-P1-P2 groups) was 45 nM in each case.

With `NS(=O)(=O)c1ccc(C(=O)O)c(Cl)c1` [M76, 2-Chloro-4-sulfamoylbenzoic acid], on wild-type hCAII protein, the “Fold Enhancement (NTM IC50)” value is 2.6 and the “Fold Enhancement (NTM-AAEIR IC50)” value was found to be 1.9.

For `C[C@H](NC(=O)c1ccc(S(N)(=O)=O)cc1)C(=O)N[C@@H](Cc1ccccc1)C(=O)N[C@@H](C)C(=O)N[C@@H](C)C(=O)N[C@@H](CCC(=O)O)C(N)=O` [(SAB)AFAAE] ({Benzoyl(4-SO2NH2)}-AFAAE-NH2), the IC50 in experiment [1] (setting [3]) and in experiment [1] (SABA-P1-P2 groups) was 183 nM in each case.

Consider `NS(=O)(=O)c1ccc(C(=O)O)nc1` [M66], for which, on wild-type hCAII protein (free NTM, 300 nM wild-type carbonic anhydrase, 1 mM pNPA, 25° C.), the half-maximal inhibitory concentration (IC50) (in general, the concentration needed to halve the response being measured) was 992 nM. In addition, the “Fold Enhancement (NTM IC50)” value on wild-type hCAII protein amounted to 0.5.

In turn, `C[C@H](NC(=O)c1ccc(S(N)(=O)=O)cc1)C(=O)N[C@@H](C)C(=O)N[C@@H](C)C(=O)N[C@@H](C)C(=O)N[C@@H](CCC(=O)O)C(N)=O` [(SAB)AAAAE] ({Benzoyl(4-SO2NH2)}-AAAAE-NH2) displayed an IC50 in experiment [1] (SABA-P1-P2 groups) of 48 nM.

Consider `NS(=O)(=O)c1ccc(C(=O)O)c([N+](=O)[O-])c1` [M67, 2Nitro-4-sulfamoylbenzoic acid], for which, at wild-type hCAII protein, the “Fold Enhancement (NTM IC50)” value is given as 3.8 and the “Fold Enhancement (NTM-AAEIR IC50)” value turned out to be 2.0.

`NS(=O)(=O)c1ccc(C(=O)O)c(F)c1` [M75, 2-Fluoro-4-sulfamoylbenzoic acid]: on wild-type hCAII protein, the “Fold Enhancement (NTM IC50)” value is 2.1 and the “Fold Enhancement (NTM-AAEIR IC50)” value stood at 2.2.

Consider `NS(=O)(=O)c1ccc(C(=O)O)cc1F` [M88, 3-Fluoro-4-sulfamoylbenzoic acid], for which, on wild-type hCAII protein, the “Fold Enhancement (NTM IC50)” value is given as 4.3 and the “Fold Enhancement (NTM-AAEIR IC50)” value was found to be 1.6.

Turning to `Cc1cc(S(N)(=O)=O)ccc1C(=O)O` [M74, 2-methyl-4 sulfamoylbenzoic acid], at wild-type hCAII protein, the “Fold Enhancement (NTM IC50)” value amounted to 0.2.

B1: 75 (protein)
chain: EWGYASHNGPDHWHELFPNAKGENQSPIELHTKDIRHDPSLQPWSVSYDGGSAKTILNNGKTLGVVFDDTYDRSMLRGGPLPGPYRLREFHLHWGSSDDHGSEHTVDGVKYAAELHLLHWNPKYNTFKEALKQRDGLAVIGIFLKIGHENGEFQIFLDALDKIKTKGKEAPFTKFDPSSLFPASRDYWTYQGSMTIPPLMEAVVWLLLKEPMTVSSDQMAKLRSLLSSAENEPPVPLVSNWRPPQPINNRVVRASFK
modifications: Synthetic binder, S279_0004
For B1, in experiment [2] (P1 = T), binding was characterised by a dissociation constant (Kd) of 488 nM; the koff (as a rule, the first-order rate constant of dissociation) amounted to 0.0111 s⁻¹; the kon – broadly, a measure of how fast the partners come together – came out at 23300 M⁻¹ s⁻¹. In addition, in experiment [2] (P1 = V), binding was characterised by a dissociation constant (Kd) of 20 nM, the “koff” value is 0.000473 s⁻¹ and the “kon” value was 23700 M⁻¹ s⁻¹.
